Test results from patent publication US11707442B2, “Antibacterial and antifungal compounds” (The General Hospital Corporation, priority 2015, dated 2023).
≈ marks a conversion by molar mass, not a printed value. Read-outs that look alike come from different tables or passages of the source.

Assays:
E. aerogenes ATCC 13048 = assay: MIC, broth microdilution; format: cell-based, Enterobacter aerogenes; conditions: Klebsiella aerogenes, ATCC13048; E. aerogenes ATCC 13048; read-out: Minimum inhibitory concentration
Source text: (§1) Bacterial strains and growth conditions and persister isolation: methicillin-resistant S. aureus (MRSA) strain MW2 BAA-1707, vancomycin-resistant S. aureus strain VRS 1, 11 clinical S. aureus isolates, 8 clinical Enterococcus faecium isolates, Klebsiella pneumoniae WGLW2 (BEI Resources, Manassas, Va., USA), Acinetobacter baumannii ATCC 17978, Pseudomonas aeruginosa PA14, and Enterobacter aerogenes ATCC 13048 were used to test antimicrobial activity (See Table 1a). S. aureus and E. faecium strains were grown in tryptic soy broth (TSB) (BD, Franklin Lakes, N.J., USA) or brain-heart infusion (BHI) broth (BD, Franklin Lakes, N.J., USA), respectively at 37° C. at 225 rpm. K. pneumoniae, A. baumannii, P. aeruginosa, and E. aerogenes were grown in Luria Bertani (LB) broth (BD, Franklin Lakes, N.J., USA).
(§2) To test the bacterial MICs for compounds described herein, the total volume in each well was 100 μl of test compounds and bacterial cells in MH broth. […] The bacterial concentration was adjusted to an initial OD600 of 0.03. After incubation at 35° C. for 18 hrs, the absorbance was measured at 595 nm in accordance with CLSI document M07-A8. The MICs of antibiotics were determined by the standard microdilution method recommended by the Clinical and Laboratory Standards Institute.

[1] = system: primary human hepatocytes; assay: Hepatotoxicity (WST-1); format: cell-based; conditions: at 32 μg/ml, 24 h
Experimental: Hepatotoxicity. Cryopreserved primary human hepatocytes were purchased from Cell Resource Core at Massachusetts General Hospital (Boston, Mass., USA). The hepatocytes were cultured in collagen sandwiched configuration in 24-well plates, as described previously (See, e.g., Dunn, J. C., et al. Hepatocyte function and extracellular matrix geometry: long-term culture in a sandwich configuration. FASEB J. 3, 174-177 (1989); Dunn, J. C., et al. Hepatocytes in collagen sandwich: evidence for transcriptional and translational regulation. J. Cell Biol. 116, 1043-1053 (1992); and Sharma, N. S. et al. Metabolic profiling based quantitative evaluation of hepatocellular metabolism in presence of adipocyte derived extracellular matrix. PLoS ONE 6, e20137 (2011)). Briefly, 0.4×10^6 live cells were seeded in 24-well plates coated with rat tail collagen type I. In order for cells to attach onto collagen gel, the 24-well plates were incubated in a humidified 5% CO2 incubator at 37° C. for 4 hours. The cells were washed and then cultured in 0.5 ml standard hepatocyte culture medium consisting of pre-warmed DMEM media supplemented with 10% FBS, 0.5 U/ml insulin, 14 ng/ml glucagon, 20 ng/ml EGF, 7.5 μg/ml hydrocortisone and 200 U/ml penicillin-streptomycin. The cell cultures were incubated in a humidified 5% CO2 incubator at 37° C. At 24 h after seeding, a top layer of collagen gel was deposited on the hepatocytes attached to the bottom collagen layer and incubated for another 24 h, then the hepatocytes were treated with a range of concentrations of retinoids for 24 h. […] WST-1 reduction was measured at absorbance 450 nm. The percent […] relative to that of the no-treatment control was calculated. […]
0.4×10^6 primary human hepatocytes cultured in a collagen gel sandwich system were treated with a range of concentration of the synthetic retinoids for 24 h. Cell viability was calculated based on the absorbance readings at 450 nm at 4 h after adding WST-1 using the following equation: % viability=(Abssample−Absblank)/(Absnon-treated−Absblank)×100. […]

E. faecium = assay: MIC, broth microdilution; format: cell-based, Enterococcus faecium; conditions: for MIC: Enterococcus faecium; for susceptibility of E. faecium: result in words
How it was run: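 MIC by CLSI broth microdilution (M07-A8) in MH broth; E. aerogenes, K. pneumoniae and A. baumannii pre-grown in LB, E. faecium in BHI, at 37° C. Inoculum at initial OD600 0.03, incubated 18 hrs at 35° C., growth read as absorbance at 595 nm.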

K. pneumonia WGLW2 = assay: MIC, broth microdilution; format: cell-based, Klebsiella pneumoniae; conditions: Klebsiella pneumoniae; K. pneumonia WGLW2; read-out: Minimum inhibitory concentration
Source text: as §1, §2

P. aeruginosa = assay: MIC, broth microdilution; format: cell-based, Pseudomonas aeruginosa; conditions: Pseudomonas aeruginosa; P. aeruginosa PA14; read-out: Minimum inhibitory concentration
Source text: as §1, §2

[2] = system: Salmonella typhimurium strains TA 1535 and TA 1538; conditions: for genotoxic potential: Ames test, result in words
Experimental: The Ames test was conducted using histidine auxotroph Salmonella typhimurium strains TA 1535 and TA 1538. To test mutagenic potential of the synthetic retinoids themselves and their metabolic products, the assay was conducted both with and without rat liver S9 fraction (Moltox, Boone, N.C., USA). Briefly, 100 μl of bacterial overnight cultures was added into 500 μl of phosphate buffer containing a range of amounts of the retinoids dissolved in 10 μl DMSO and with or without 4% S9. After incubation at 37° C. for 1 h, the samples were added into 2 ml of soft agar including 0.5 mM of histidine/biotin, mixed, and poured onto minimal glucose agar plates. The plates were incubated at 37° C. for 48 h, and the revertant colonies were counted. 10 μl DMSO was used as a negative control. […] 5 μg/plate 2-aminoanthracene was used as a positive control for both strains in the metabolic activation system. The test was performed in triplicate.

[3] = E. faecium C68, read-out: Minimum inhibitory concentration
[4] = E. faecium D14, read-out: Minimum inhibitory concentration
[5] = E. faecium D24, read-out: Minimum inhibitory concentration
[6] = E. faecium D25, read-out: Minimum inhibitory concentration
[7] = E. faecium D29, read-out: Minimum inhibitory concentration
[8] = E. faecium E007, read-out: Minimum inhibitory concentration
[9] = E. faecium WB213, read-out: Minimum inhibitory concentration
[10] = E. faecium WC176, read-out: Minimum inhibitory concentration

Row | SMILES | MIC (E. aerogenes ATCC 13048) [µg/mL] | toxicity to primary human hepatocytes [1] | MIC (E. faecium; [5]) [µg/mL] | MIC (E. faecium; [6]) [µg/mL] | MIC (E. faecium; [7]) [µg/mL] | MIC (E. faecium; [9]) [µg/mL] | MIC (K. pneumonia WGLW2) [µg/mL] | MIC (P. aeruginosa) [µg/mL] | genotoxic potential [2] | Number of revertants (T1535) ([2]; With S9, 5 μg/plate) | Number of revertants (T1538) ([2]; With S9, 5 μg/plate) | Number of revertants (T1535) ([2]; With S9, 25 μg/plate) | Number of revertants (T1538) ([2]; With S9, 25 μg/plate) | Number of revertants (T1535) ([2]; With S9, 100 μg/plate) | Number of revertants (T1538) ([2]; With S9, 100 μg/plate) | Number of revertants (T1535) ([2]; Without S9, 5 μg/plate) | Number of revertants (T1538) ([2]; Without S9, 5 μg/plate) | Number of revertants (T1535) ([2]; Without S9, 25 μg/plate) | Number of revertants (T1538) ([2]; Without S9, 25 μg/plate) | Number of revertants (T1535) ([2]; Without S9, 100 μg/plate) | other results
1 | O=C(O)/C=C/c1ccc(-c2ccc(O)c(C34CC5CC(CC(C5)C3)C4)c2)cc1 [Adarotene, (2E)-3-(4′-Hydroxy-3′-tricyclo[3.3.1.13,7]dec-1-yl[1,1′-biphenyl]-4-yl)-2-propenoic acid] | > 64 | did not cause significant toxicity | 2 (≈ 5.34 µM) | 4 (≈ 10.7 µM) | 2 (≈ 5.34 µM) | 2 (≈ 5.34 µM) | > 64 | > 64 | did not show significant genotoxic potential | 6 ± 2 | 8 ± 4 | 7 ± 3 | 8 ± 1 | 7 ± 1 | 7 ± 3 | 6 ± 1 | 6 ± 1 | 7 ± 3 | 4 ± 3 | 6 ± 2 | MIC (E. faecium; [3]): 4 µg/mL (≈ 10.7 µM); MIC (E. faecium; [4]): 4 µg/mL (≈ 10.7 µM); MIC (E. faecium; [8]): 4 µg/mL (≈ 10.7 µM); MIC (E. faecium; [10]): 4 µg/mL (≈ 10.7 µM); Number of revertants (T1538) ([2]; Without S9, 100 μg/plate): 5 ± 2
2 | O=C(O)c1ccc2cc(-c3ccc(O)c(C45CC6CC(CC(C6)C4)C5)c3)ccc2c1 [CD437, 6-(4-hydroxy-3-tricyclo[3.3.1.13,7]dec-1-ylphenyl)-2-naphthalenecarboxylic acid] | > 64 | did not cause significant toxicity | 1 (≈ 2.51 µM) | 1 (≈ 2.51 µM) | 1 (≈ 2.51 µM) | 1 (≈ 2.51 µM) | > 64 | > 64 | did not show significant genotoxic potential | 6 ± 3 | 9 ± 3 | 8 ± 3 | 10 ± 2 | 8 ± 3 | 6 ± 1 | 6 ± 2 | 5 ± 2 | 5 ± 2 | 4 ± 1 | 8 ± 2 | susceptibility of E. faecium (E. faecium): susceptible; Number of revertants (T1538) ([2]; Without S9, 100 μg/plate): 3 ± 3
3 | O=C(O)c1ccc(-c2ccc3cc(O)c(C45CC6CC(CC(C6)C4)C5)cc3c2)cc1 [CD1530, 4-(6-hydroxy-7-tricyclo[3.3.1.13,7]dec-1-yl-2-naphthalenyl)-benzoic acid] | > 64 | did not cause significant toxicity | 1 (≈ 2.51 µM) | 1 (≈ 2.51 µM) | 1 (≈ 2.51 µM) | 1 (≈ 2.51 µM) | > 64 | > 64 | did not show significant genotoxic potential | 7 ± 3 | 7 ± 3 | 7 ± 2 | 10 ± 4 | 8 ± 2 | 8 ± 2 | 7 ± 3 | 3 ± 3 | 7 ± 2 | 4 ± 2 | 8 ± 4 | MIC (E. faecium; [3]): 2 µg/mL (≈ 5.02 µM); MIC (E. faecium; [4]): 2 µg/mL (≈ 5.02 µM); MIC (E. faecium; [8]): 2 µg/mL (≈ 5.02 µM); MIC (E. faecium; [10]): 2 µg/mL (≈ 5.02 µM); MIC (E. faecium; E. faecium, (range given for E. faecium and E. faecalis), read-out: MIC): 2 to 4 µg/mL (≈ 5.02 to 10 µM); susceptibility of E. faecium (E. faecium): susceptible; Number of revertants (T1538) ([2]; Without S9, 100 μg/plate): 4 ± 2
